Experimental data from patent EP0082023A2, “Thienopyrimidine derivatives, their preparation and their medical use” (SANKYO COMPANY LIMITED, priority 1981, dated 1983).

Key:
[1] = system: male mice of the ddY strain; assay: Hypoglycaemic activity in mice after glucose loading; assay type: in vivo; details: Mus musculus, po, 0.5 h; blood sugar concentration vs positive control group; 10 mg/kg orally, 1.2 g/kg D-glucose orally 10 minutes later, blood collected 30 minutes after D-glucose; groups of 6 mice; read-out: Inhibitory rate, R%
Protocol: In this experiment, the hypoglycaemic activity of various of the compounds of the invention was measured in mice after loading a large quantity of glucose. The test animals were male mice of the ddY strain having a body weight of from 25 to 27 g. Each experiment was carried out on a group of 6 mice.
Each test compound was administered orally in an amount of 10 mg/kg to the mouse followed, 10 minutes later, by the oral administration of 1.2 g/kg of D-glucose. 30 minutes after administration of the D-glucose, blood was collected from each mouse and the blood sugar.concentration was measured using a commercially available kit ("New Blood Sugar Test", a product of Boehringer-Mannheim Yamanouchi Pharmaceutical Co. Ltd,). The inhibitory rate, R, was calculated from the following formula: [formula] in which A represents the blood sugar concentration of a positive control group and B represents the blood sugar concentration of the group to which the test compound was administered. As a control, the experiment was also carried out with: the known hypoglycaemic agent, tolbutamide; 2-(2-aminoethylamino)-4-morpholinothieno[2,3-d]pyrimidine (named "VK-744"), a compound disclosed in German Offenlegungsschrift No. 2,200,764; and 4-isopropylamino-2-piperidinothieno[2,3-d]-pyrimidine (hereinafter referred to as "ICI-154"), a compound disclosed in U.S. Patent Specification No. 4,146,716.

platelet aggregation = assay: Inhibition of collagen-induced platelet aggregation in platelet-rich plasma; assay type: cell-based; details: rabbit PRP, incubated 2 minutes, collagen 5 ug/ml
Protocol: The ability of various compounds of the present invention to inhibit platelet aggregation was measured using rabbit blood.
9 volumes of blood collected from male rabbit hearts and 1 volume of a 3.8% w/v aqueous solution of sodium citrate were mixed, placed in a centrifugal separator and subjected to centrifugation under 150 G for 15 minutes to give a platelet-rich-plasma (PRP). 250 pl of this PRP were placed in a cuvette and incubated for 2 minutes with a test compound at the concentration shown in Table 2. To the mixture was then added a collagen solution to a final concentration of 5 ug/ml, to induce aggregation. The aggregation was measured using an aggregometer produced by Rikadenki Co. Ltd. The inhibitory rate R' was calculated from the following formula: [formula] in which A' represents the maximum aggregation rate when only a solvent was added and B' represents the maximum aggregation rate when the test compound was added.
For comparison, the experiment was also carried out using as the test compound VK-744, of German Offenlegungsschrift No. 2,200,764, and ICI-154 of U.S. Patent Specification No. 4,146,716.

[2] = system: male mice of the ddY strain; assay: Diuretic activity in mice (urine volume and sodium ion concentration); assay type: in vivo; details: urine collected for 2 hours after administration, increase over control group
Protocol: The animals employed in this test were male mice of the ddY strain, each having a body weight of from 26 g to 30 g. The mice were employed in groups of five for each test. Each test compound was suspended in a 0.3% carboxymethylcellulose saline solution and administered orally in the dose shown in Table 3 to the mouse. For the period of 2 hours after administration, the urine was collected and the urine volume and concentration of sodium ions were measured. […] The compounds tested were Compound No. 3 of the present invention and hydrochlorothiazide (abbreviated as "HCT").

In the case of `CNc1nc(N2CCNCC2)nc2sccc12` [compound 49, 4-Methylamino-2-(1-piperazinyl)thieno[2,3-d]pyrimidine], the inhibition in vivo at 10 mg/kg [1] is reported as 32%.

Molecule `CCCCNC(=O)NS(=O)(=O)c1ccc(C)cc1` [tolbutamide, reference compound] has an inhibition in vivo at 10 mg/kg [1] of 2.8%.

Work on `CCc1cc2c(N)nc(N3CCN(C=O)CC3)nc2s1` [Compound No. 84, 4-Amino-6-ethyl-2-(4-formyl-1-piperazinyl)thieno-[2,3-d]pyrimidine] yielded an inhibition in vivo at 10 mg/kg [1] of 39.3%.

`Cc1csc2nc(N3CCNCC3)nc(N)c12` [Compound No. 3, 4-Amino-5-methyl-2-(1-piperazinyl)thieno[2,3-d]-pyrimidine] was tested, and the inhibition in vivo at 10 mg/kg [1] was 32.4%, the “Inhibitory rate, R'%” value (platelet aggregation; concentration 10^-5 g/ml) was 82.4% and the “Percent increase in Na^+ conc.” value ([2]; dose 100 mg/kg orally) was “+51%”. The “Percent increase in Urine volume” value ([2]; dose 100 mg/kg orally) was “+76%”.

Molecule `NCCNc1nc(N2CCOCC2)c2ccsc2n1` [VK-744, 2-(2-aminoethylamino)-4-morpholinothieno[2,3-d]pyrimidine, reference compound] has an inhibition in vivo at 10 mg/kg [1] of 19%.

`OCCN(CCO)c1nc(N2CCNCC2)nc2sc3c(c12)CCCC3` [Compound No. 197, 4-Bis(2-hydroxyethyl)amino-2-(1-piperazinyl)-5,6-tetramethylenethieno[2,3-d]pyrimidine] was tested, and the “Inhibitory rate, R'%” value (platelet aggregation; concentration 10^-5 g/ml) was 87%.

`CCc1cc2c(N(CCO)CCO)nc(N3CCNCC3)nc2s1` [compound 62, 4-Bis(2-hydroxyethyl)amino-6-ethyl-2-(1-piperazinyl)-thieno[2,3-d]pyrimidine] was tested, and the “Inhibitory rate, R'%” value (platelet aggregation; concentration 10^-6 g/ml) was 65.3%.

In the case of `CCc1cc2c(NC)nc(N3CCNCC3)nc2s1` [Compound No. 21, 6-Ethyl-4-methylamino-2-(1-piperazinyl)thieno[2,3-d]-pyrimidine], the inhibition in vivo at 10 mg/kg [1] is reported as 20%.

Work on `CNc1nc(N2CCNCC2)nc2scc(C)c12` [Compound No. 16, 5-Methyl-4-methylamino-2-(1-piperazinyl)thieno[2,3-d]-pyrimidine] yielded an inhibition in vivo at 10 mg/kg [1] of 43.9%.

In the case of `NS(=O)(=O)c1cc2c(cc1Cl)NCNS2(=O)=O` [HCT, hydrochlorothiazide, reference compound], the “Percent increase in Na^+ conc.” value ([2]; dose 30 mg/kg orally) is reported as “+93%” and the “Percent increase in Urine volume” value ([2]; dose 30 mg/kg orally) is reported as “+43%”.

In the case of `CCc1cc2c(NCCN)nc(N3CCNCC3)nc2s1` [Compound No. 66, 4-(2-Aminoethylamino)-6-ethyl-2-(1-piperazinyl)-thieno[2,3-d]pyrimidine], the inhibition in vivo at 10 mg/kg [1] is reported as 32.9% and the “Inhibitory rate, R'%” value (platelet aggregation; concentration 3 x 10^-5 g/ml) is reported as 100%.

With `CC(C)Nc1nc(N2CCCCC2)nc2sccc12` [ICI-154, 4-isopropylamino-2-piperidinothieno[2,3-d]-pyrimidine, reference compound] the inhibition in vivo at 10 mg/kg [1] was 11% and the “Inhibitory rate, R'%” value (platelet aggregation; concentration 10^-4 g/ml) was under 50%.

`CCc1cc2c(NCCO)nc(N3CCNCC3)nc2s1` [Compound No. 54, 6-Ethyl-4-(2-hydroxyethylamino)-2-(1-piperazinyl)-thieno[2,3-d]pyrimidine] was tested, and the “Inhibitory rate, R'%” value (platelet aggregation; concentration 10^-6 g/ml) was 66.1%.

`CCc1cc2c(N)nc(N3CCN(C)CC3)nc2s1` [Compound No. 73, 4-Amino-6-ethyl-2-(4-methyl-1-piperazinyl)thieno-[2,3-d]pyrimidine] was tested, and the inhibition in vivo at 10 mg/kg [1] was 34.1% and the “Inhibitory rate, R'%” value (platelet aggregation; concentration 3 x 10^-5 g/ml) was 100%.

`CCc1cc2c(N(CC)CC)nc(N3CCNCC3)nc2s1` [Compound No. 39, 4-Diethylamino-6-ethyl-2-(1-piperazinyl)thieno[2,3-d]-pyrimidine] gave an inhibition in vivo at 10 mg/kg [1] of 19.4%.

`CCc1cc2c(NC)nc(N3CCN(C=O)CC3)nc2s1` [Compound No. 99, 6-Ethyl-2-(4-formyl-1-piperazinyl)-4-methylaminothieno-[2,3-d]pyrimidine] gave an inhibition in vivo at 10 mg/kg [1] of 22.1%.

Work on `CCc1cc2c(N)nc(N3CCNCC3)nc2s1` [Compound No. 8, 4-Amino-6-ethyl-2-(1-piperazinyl)thieno[2,3-d]-pyrimidine] yielded an inhibition in vivo at 10 mg/kg [1] of 34%.
